Results on eight molecules are retold here after ChEMBL document CHEMBL1123092, “Psychotomimetic N-methyl-N-isopropyltryptamines. Effects of variation of aromatic oxygen substituents” (1985).

Assay [1] is filed under the species Rattus norvegicus. In words: […] and the effective dose required for the elicitation of the complete psychotomimetic spectrum was determined; f =Not effective at 50 mg. The class given is functional, organism-based.
The species named for assay [2] is Rattus norvegicus. The assay can be described thus: Duration of time in hours, after ingestion at which central effects begin to decline was determined. Type of assay: functional.
A short description of assay [3]: […] and the effective dose required for the elicitation of the complete psychotomimetic spectrum was determined. The class given is functional.
For assay [4], the species on record is Rattus norvegicus. In words: Onset time in minutes, between ingestion and the first noticeable symptoms was determined. Type of assay: functional.

As for `COc1cc2[nH]cc(CCN(C)C(C)C)c2cc1OC`, in the assay listed under Rattus norvegicus [1], the Effective dose result was “Not effective at 50mg”.

In the assay filed under Rattus norvegicus [2], `CC(C)N(C)CCc1c[nH]c2cccc(O)c12` had a Duration of 6 h. The Effective dose in assay [3] came to 10 mg/kg. The molecule also showed an Onset time in the assay filed under Rattus norvegicus [4] of 20 min.

In turn, `COc1ccc2[nH]cc(CCN(C)C(C)C)c2c1` returned a Duration in the assay filed under Rattus norvegicus [2] of 3 h. Moreover, the Effective dose in assay [3] is 5 mg/kg. The same molecule displayed an Onset time in the assay filed under Rattus norvegicus [4] of 9 min.

In the case of `CC(C)N(C)CCc1c[nH]c2cc3ooc3cc12`, in the assay filed under Rattus norvegicus [1], the Effective dose entry was “Not effective at 50mg”.

`CC(C)N(C)CCc1c[nH]c2ccccc12` gave a Duration in the assay listed under Rattus norvegicus [2] of 3 h. This molecule also displayed an Effective dose in assay [3] of 25 mg/kg. The molecule further came in with an Onset time in the assay filed under Rattus norvegicus [4] of 40 min.

For the molecule `COc1ccc2c(CCN(C)C(C)C)c[nH]c2c1`, in the assay filed under Rattus norvegicus [1], the Effective dose entry is “Not effective at 50mg”.

In the case of `COc1cccc2c(CCN(C)C(C)C)c[nH]c12`, the Effective dose entry in the assay listed under Rattus norvegicus [1] was “Not effective at 50mg”.

`COc1cccc2[nH]cc(CCN(C)C(C)C)c12` gave a Duration in the assay filed under Rattus norvegicus [2] of 2 h. In addition, the Effective dose in assay [3] came out at 30 mg/kg. In the assay listed under Rattus norvegicus [4], this molecule gave an Onset time of 45 min.
